In patent US10363251B2, “(+)-morphinans as antagonists of toll-like receptor 9 and therapeutic uses thereof” (Mallinckrodt LLC, priority 2009, dated 2019):

Biological target: T1, TLR9 (Homo sapiens, UniProt Q9NR96)
T1 construct: expressed in transfected cells; host or cells: HEK293
T1 sequence (Q9NR96 26-1032): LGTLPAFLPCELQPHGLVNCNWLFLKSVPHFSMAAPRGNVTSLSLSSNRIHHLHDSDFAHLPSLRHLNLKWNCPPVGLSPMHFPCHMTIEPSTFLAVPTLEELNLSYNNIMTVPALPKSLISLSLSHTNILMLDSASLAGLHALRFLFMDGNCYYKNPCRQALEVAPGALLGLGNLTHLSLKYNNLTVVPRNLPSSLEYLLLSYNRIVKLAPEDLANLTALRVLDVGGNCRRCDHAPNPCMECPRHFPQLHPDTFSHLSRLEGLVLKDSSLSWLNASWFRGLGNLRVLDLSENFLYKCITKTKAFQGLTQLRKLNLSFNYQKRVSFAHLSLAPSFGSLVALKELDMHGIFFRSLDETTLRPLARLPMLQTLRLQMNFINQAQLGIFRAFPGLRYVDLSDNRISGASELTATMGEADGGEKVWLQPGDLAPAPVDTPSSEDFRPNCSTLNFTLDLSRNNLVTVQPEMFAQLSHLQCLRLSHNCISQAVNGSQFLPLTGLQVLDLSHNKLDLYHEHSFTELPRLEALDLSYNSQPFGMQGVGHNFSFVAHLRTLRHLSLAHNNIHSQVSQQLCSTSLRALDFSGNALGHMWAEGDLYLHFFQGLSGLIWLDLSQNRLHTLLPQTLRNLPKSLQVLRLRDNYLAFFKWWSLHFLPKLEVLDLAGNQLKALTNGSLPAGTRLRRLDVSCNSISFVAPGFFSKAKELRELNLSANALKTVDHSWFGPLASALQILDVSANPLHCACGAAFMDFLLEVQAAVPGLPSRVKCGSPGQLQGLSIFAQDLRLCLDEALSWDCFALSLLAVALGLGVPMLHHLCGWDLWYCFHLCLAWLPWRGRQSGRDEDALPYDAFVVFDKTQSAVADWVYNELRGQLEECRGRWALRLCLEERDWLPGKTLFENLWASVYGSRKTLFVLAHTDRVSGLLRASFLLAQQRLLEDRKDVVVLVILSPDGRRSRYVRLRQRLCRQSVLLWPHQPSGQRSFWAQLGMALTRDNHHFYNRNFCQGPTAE
Assay: TLR9 screening of (+)-morphinan library, SEAP reporter in HEK293 cells expressing TLR9
Assay type: cell-based
Conditions: activator ODN2006; for OD 650 nm (mean ± sd): control (no activator) 0.14, activator 1.42 OD; for inhibition at 0.1 µM: HEK293, read-out: % Inhibition (mean), 100 nM; for inhibition at 10 µM: HEK293, read-out: % Inhibition (mean), 10 μM
Method: The secreted alkaline phosphatase reporter is under the control of a promoter inducible by the transcription factor NF-κB. A library of more than 100 (+)-morphinan compounds was screened for TLR9 antagonist activity by assessing NF-κB activation in the HEK293 cells expressing TLR9. This reporter gene allows the monitoring of signaling through the TLR, based on the activation of NF-κB.
In a 96-well plate (200 μL total volume) containing 50,000 cells/well, 20 μL of each sample compound was added to wells, in triplicate, followed by a 30 minute incubation at 37° C. and 5% CO2. After the 30 minutes of incubation, 20 μL of the activator ODN2006 was added to each well. The media added to the wells was designed for the detection of NF-κB induced SEAP expression. After a 16-20 hr incubation period, the OD at 650 nm was read on a Beckman Coulter AD 340C Absorbance Detector. All compounds were tested at concentrations of 10 μM and 100 nM.

| Structure (SMILES) | % Inhibition (mean) (100 nM, 0.1 µM) | OD 650 nm (mean ± sd) (100 nM) | % Inhibition (mean) (10 μM) | OD 650 nm (mean ± sd) (10 μM) | inhibition at 0.1 µM | inhibition at 10 µM |
| --- | --- | --- | --- | --- | --- | --- |
| COc1ccc2c3c1O[C@@H]1C(O)CC[C@]4(O)[C@H](C2)N(CC2CC2)CC[C@@]314 (single isomer, unassigned) [II-53a] | 14% | 1.22 ± 0.05 OD | 7% | 1.32 ± 0.13 OD |  |  |
| COc1ccc2c3c1O[C@@H]1C(O)CC[C@]4(O)[C@H](C2)N(CC2CC2)CC[C@@]314 (single isomer, unassigned) [II-53b] | 1% | 1.41 ± 0.09 OD | 29% | 1.00 ± 0.03 OD |  |  |
| C=CCN1CC[C@@]23c4c5ccc(OC)c4OC2C(OC(C)=O)CC[C@@H]3C1C5 (single isomer, unassigned) [II-94a] |  | 1.13 ± 0.04 OD | 18% | 1.16 ± 0.08 OD | 20% |  |
| C=CCN1CC[C@@]23c4c5ccc(OC)c4OC2C(OC(C)=O)CC[C@@H]3C1C5 (single isomer, unassigned) [II-94b] | 17% | 1.17 ± 0.03 OD | 8% | 1.30 ± 0.05 OD |  |  |
| C=CCN1CC[C@@]23c4c5ccc(OC)c4O[C@@H]2[C@H](O)CC[C@]3(O)[C@@H]1C5 (stereo in doubt) [II-48] |  |  |  |  |  | 13% |
| COc1cc(Br)c2c(c1O)[C@@]13CCNC(C2)C1CCC(=O)C3 (stereo partly drawn) [Compound I-1] |  | 1.18 ± 0.10 OD |  | 0.21 ± 0.01 OD | 17% | 85% |
| COc1cc(Br)c2c(c1O)[C@@]13CCN(CC4CC4)C(C2)C1CCC(=O)C3 (stereo partly drawn) [Compound I-2] |  | 1.10 ± 0.06 OD |  | 0.14 ± 0.02 OD | 22% | 90% |
| C=CCN1CC[C@@]23CC(=O)CCC2C1Cc1c(-c2ccoc2)cc(OC)c(O)c13 (stereo partly drawn) [Compound I-3] |  | 1.12 ± 0.01 OD |  | 0.11 ± 0.00 OD | 21% | 92% |
| COC(=O)CCc1cc(OC)c(O)c2c1CC1C3CCC(=O)C[C@@]23CCN1CC1CC1 (stereo partly drawn) [Compound I-4] |  | 1.17 ± 0.06 OD |  | 0.46 ± 0.05 OD | 18% | 68% |
| COc1ccc2c(c1O)[C@@]13CCN(CC4CC4)C(C2)C1CCC(=O)C3 (stereo partly drawn) [Compound I-6] |  | 1.29 ± 0.07 OD |  | 0.12 ± 0.02 OD | 9% | 91% |
| C=CCN1CC[C@@]23CC(=O)CCC2C1Cc1ccc(OC)c(O)c13 (stereo partly drawn) [Compound I-7] |  | 1.14 ± 0.03 OD |  | 0.16 ± 0.01 OD | 20% | 89% |
| COc1cc(Br)c2c(c1O)[C@@]13CCN(CC4CCC4)C(C2)C1CCC(=O)C3 (stereo partly drawn) [Compound I-8] |  | 1.13 ± 0.07 OD |  | 0.11 ± 0.01 OD | 20% | 92% |
| COc1ccc2c(c1O)[C@@]13CCN(C)[C@@H](C2)[C@@]1(O)CC(OC)C(=O)C3 (stereo partly drawn) [Compound I-9] |  | 1.50 ± 0.10 OD |  | 1.03 ± 0.01 OD | -6% | 28% |
| COc1ccc2c(c1O)[C@@]13CCN(C)[C@@H](C2)[C@H]1CC(OC)C(O)C3 (stereo partly drawn) [Compound I-10] |  | 1.32 ± 0.04 OD |  | 1.04 ± 0.08 OD | 7% | 27% |
| CCOC(=O)N1CC[C@@]23CC(=O)CCC2C1Cc1c(Br)cc(OC)c(O)c13 (stereo partly drawn) [Compound I-11] |  | 1.49 ± 0.04 OD |  | 1.98 ± 0.09 OD | -5% | -39% |
| COc1cc(Br)c2c(c1OC(C)=O)[C@@]13CCN(CC4CC4)C(C2)C1CCC(=O)C3 (stereo partly drawn) [Compound I-12] |  | 1.19 ± 0.07 OD |  | 0.13 ± 0.01 OD | 16% | 91% |
| COc1cc(-c2ccoc2)c2c(c1O)[C@@]13CCN(CC4CC4)C(C2)C1CCC(=O)C3 (stereo partly drawn) [Compound I-13] |  | 1.34 ± 0.12 OD |  | 0.13 ± 0.01 OD | 6% | 91% |
| C=CCN1CC[C@@]23CC(=O)C(OC)C[C@@H]2[C@@H]1Cc1ccc(OC)c(O)c13 (stereo partly drawn) [Compound I-16] |  | 1.50 ± 0.01 OD |  | 0.91 ± 0.04 OD | -5% | 36% |
| COc1ccc2c(c1O)[C@@]13CCN(CC4CC4)[C@@H](C2)[C@@]1(O)CC(OC)C(=O)C3 (stereo partly drawn) [Compound I-18] |  | 1.40 ± 0.14 OD |  | 1.01 ± 0.06 OD | 1% | 29% |
| COc1ccc2c(c1O)[C@]13C=CCC[C@]1(O)[C@H](C2)N(C)CC3 [Compound I-22] |  | 0.93 ± 0.15 OD |  | 0.10 ± 0.01 OD | 34% | 93% |
| COc1ccc2c(c1O)[C@@]13CCN(C)[C@@H](C2)[C@@]1(O)CCC(=O)C3 [Compound I-25] |  | 1.08 ± 0.05 OD |  | 0.52 ± 0.07 OD | 24% | 63% |
| COc1ccc2c(c1OCc1ccccc1)[C@@]13CCN[C@@H](C2)[C@H]1CC(OC)C(=O)C3 (stereo partly drawn) [Compound I-26] |  | 1.15 ± 0.03 OD |  | 0.19 ± 0.02 OD | 19% | 87% |
| C=C(C)c1cc(OC)c(O)c2c1CC1C3CCC(=O)C[C@@]23CCN1CC1CC1 (stereo partly drawn) [Compound I-27] |  | 1.13 ± 0.04 OD |  | 0.10 ± 0.00 OD | 20% | 93% |
| COC1=C[C@@H]2[C@@H]3Cc4ccc(OC)c(O)c4[C@]2(CCN3C)CC1O (stereo partly drawn) [Compound I-28] |  | 1.24 ± 0.02 OD |  | 0.12 ± 0.01 OD | 13% | 91% |
